Experimental data reported in ChEMBL document CHEMBL3885861, “Open TG-GATES”.

Species on record: Rattus norvegicus
Assay: Open TG-GATES - Regimen: Single
Type: toxicity, organism-based, Sprague-Dawley
Set-up: regimen Single, gender Male, age 6 weeks
Conditions: in vivo, po, route gavage; for APTT / Bas / Eos / Fbg / Hb / Ht / Lym / MCH / MCHC / MCV / Mono / Neu / PT / Plat / RBC / Ret / WBC: tissue Blood; for KIDNEY_L / KIDNEY_R / KIDNEY_TOTAL: tissue Kidney; for LIVER: tissue Liver
[1] = 100 mg/kg, 3 h, tissue Plasma, dose level Low
[2] = 100 mg/kg, 6 h, tissue Plasma, dose level Low
[3] = 100 mg/kg, 9 h, tissue Plasma, dose level Low
[4] = 100 mg/kg, 24 h, dose level Low
[5] = 100 mg/kg, 24 h, tissue Plasma, dose level Low

C[C@H](CS)C(=O)N1CCC[C@H]1C(=O)O [CAPTOPRIL]
gamma-GTP (0 mg/kg, 24 h, tissue Plasma, dose level Control): 1 IU/L | TERMINAL_BW (100 mg/kg, 3 h, dose level Low): 224.3 g | APTT (100 mg/kg, 3 h, dose level Low): 16.3 s | Bas (100 mg/kg, 3 h, dose level Low): 0% | Eos (100 mg/kg, 3 h, dose level Low): 1% | Fbg (100 mg/kg, 3 h, dose level Low): 207 mg/dL | Hb (100 mg/kg, 3 h, dose level Low): 13.1 g/dL | Ht (100 mg/kg, 3 h, dose level Low): 40.2% | Lym (100 mg/kg, 3 h, dose level Low): 82.2% | MCH (100 mg/kg, 3 h, dose level Low): 21.1 pg | MCHC (100 mg/kg, 3 h, dose level Low): 32.7% | MCV (100 mg/kg, 3 h, dose level Low): 64.4 fL | Mono (100 mg/kg, 3 h, dose level Low): 4.8% | Neu (100 mg/kg, 3 h, dose level Low): 12.2% | PT (100 mg/kg, 3 h, dose level Low): 11.9 s | Plat (100 mg/kg, 3 h, dose level Low): 123.2 x10_4/uL | RBC (100 mg/kg, 3 h, dose level Low): 624.2 x10_4/ul | Ret (100 mg/kg, 3 h, dose level Low): 7.4% | KIDNEY_L (100 mg/kg, 3 h, dose level Low): 1 g | KIDNEY_R (100 mg/kg, 3 h, dose level Low): 1 g | KIDNEY_TOTAL (100 mg/kg, 3 h, dose level Low): 2.1 g | ALP [1]: 996 IU/L | ALT [1]: 35.6 IU/L | AST [1]: 67 IU/L | BUN [1]: 13.8 mg/dL | CRE [1]: 0.5 mg/dL | DBIL [1]: 0.008 mg/dL | GLC [1]: 205.2 mg/dL | IP [1]: 9.7 mg/dL | K [1]: 4.9 meq/L | LDH [1]: 113.6 IU/L | Na [1]: 137.8 meq/L | PL [1]: 131.8 mg/dL | RALB [1]: 3.6 g/dL | TBIL [1]: 0.4 mg/dL | TC [1]: 70.4 mg/dL | TG [1]: 68 mg/dL | TP [1]: 5.5 g/dL | gamma-GTP [1]: 2 IU/L | TERMINAL_BW (100 mg/kg, 6 h, dose level Low): 225.5 g | APTT (100 mg/kg, 6 h, dose level Low): 16.3 s | Bas (100 mg/kg, 6 h, dose level Low): 0% | Eos (100 mg/kg, 6 h, dose level Low): 1% | Hb (100 mg/kg, 6 h, dose level Low): 12.9 g/dL | Ht (100 mg/kg, 6 h, dose level Low): 39.5% | Lym (100 mg/kg, 6 h, dose level Low): 76.4% | MCH (100 mg/kg, 6 h, dose level Low): 21.8 pg | MCHC (100 mg/kg, 6 h, dose level Low): 32.8% | MCV (100 mg/kg, 6 h, dose level Low): 66.5 fL | Mono (100 mg/kg, 6 h, dose level Low): 5.8% | Neu (100 mg/kg, 6 h, dose level Low): 17% | PT (100 mg/kg, 6 h, dose level Low): 12.2 s | Plat (100 mg/kg, 6 h, dose level Low): 113.6 x10_4/uL | RBC (100 mg/kg, 6 h, dose level Low): 595.2 x10_4/ul | Ret (100 mg/kg, 6 h, dose level Low): 7.9% | WBC (100 mg/kg, 6 h, dose level Low): 126.2 x10_2/uL | KIDNEY_L (100 mg/kg, 6 h, dose level Low): 1.1 g | KIDNEY_R (100 mg/kg, 6 h, dose level Low): 1.1 g | KIDNEY_TOTAL (100 mg/kg, 6 h, dose level Low): 2.2 g | ALP [2]: 794.8 IU/L | ALT [2]: 30.8 IU/L | AST [2]: 55.6 IU/L | BUN [2]: 17.4 mg/dL | CRE [2]: 0.6 mg/dL | DBIL [2]: 0.028 mg/dL | GLC [2]: 192.4 mg/dL | IP [2]: 9.6 mg/dL | K [2]: 4.9 meq/L | LDH [2]: 73.8 IU/L | Na [2]: 138.6 meq/L | PL [2]: 130.6 mg/dL | RALB [2]: 3.7 g/dL | TBIL [2]: 0.4 mg/dL | TC [2]: 69.8 mg/dL | TG [2]: 62.6 mg/dL | TP [2]: 5.3 g/dL | gamma-GTP [2]: 1.6 IU/L | TERMINAL_BW (100 mg/kg, 9 h, dose level Low): 220.6 g | APTT (100 mg/kg, 9 h, dose level Low): 16.3 s | Bas (100 mg/kg, 9 h, dose level Low): 0% | Eos (100 mg/kg, 9 h, dose level Low): 1% | Fbg (100 mg/kg, 9 h, dose level Low): 205.8 mg/dL | Hb (100 mg/kg, 9 h, dose level Low): 12.8 g/dL | Ht (100 mg/kg, 9 h, dose level Low): 38.8% | Lym (100 mg/kg, 9 h, dose level Low): 74% | MCH (100 mg/kg, 9 h, dose level Low): 21.6 pg | MCHC (100 mg/kg, 9 h, dose level Low): 33% | MCV (100 mg/kg, 9 h, dose level Low): 65.6 fL | Mono (100 mg/kg, 9 h, dose level Low): 5.4% | Neu (100 mg/kg, 9 h, dose level Low): 19.2% | PT (100 mg/kg, 9 h, dose level Low): 12.1 s | Plat (100 mg/kg, 9 h, dose level Low): 119.2 x10_4/uL | RBC (100 mg/kg, 9 h, dose level Low): 591.8 x10_4/ul | Ret (100 mg/kg, 9 h, dose level Low): 8.2% | KIDNEY_L (100 mg/kg, 9 h, dose level Low): 1 g | KIDNEY_R (100 mg/kg, 9 h, dose level Low): 1 g | KIDNEY_TOTAL (100 mg/kg, 9 h, dose level Low): 2 g | LIVER (100 mg/kg, 9 h, dose level Low): 9 g | ALP [3]: 891.4 IU/L | ALT [3]: 30.6 IU/L | AST [3]: 59.2 IU/L | BUN [3]: 13.4 mg/dL | CRE [3]: 0.4 mg/dL | DBIL [3]: 0.084 mg/dL | GLC [3]: 202.4 mg/dL | K [3]: 4.7 meq/L | LDH [3]: 71 IU/L | Na [3]: 138.6 meq/L | PL [3]: 122.4 mg/dL | RALB [3]: 3.6 g/dL | TBIL [3]: 0.3 mg/dL | TC [3]: 65.2 mg/dL | TG [3]: 55.8 mg/dL | TP [3]: 5.2 g/dL | gamma-GTP [3]: 1.8 IU/L | TERMINAL_BW [4]: 234.4 g | APTT [4]: 17.2 s | Bas [4]: 0% | Eos [4]: 1.4% | Hb [4]: 12.8 g/dL | Ht [4]: 38.4% | Lym [4]: 71.8% | MCH [4]: 21.1 pg | MCHC [4]: 33.2% | MCV [4]: 63.6 fL | Mono [4]: 6.4% | Neu [4]: 20% | PT [4]: 11.6 s | Plat [4]: 114.1 x10_4/uL | RBC [4]: 604.4 x10_4/ul | Ret [4]: 8.7% | WBC [4]: 82.6 x10_2/uL | KIDNEY_L [4]: 1.1 g | KIDNEY_R [4]: 1.1 g | KIDNEY_TOTAL [4]: 2.3 g | LIVER [4]: 11.3 g | ALT [5]: 40.8 IU/L | AST [5]: 68.8 IU/L | BUN [5]: 15.8 mg/dL | CRE [5]: 0.6 mg/dL | Ca [5]: 11.1 mg/dL | DBIL [5]: 0.058 mg/dL | GLC [5]: 189.4 mg/dL | IP [5]: 8.5 mg/dL | K [5]: 4.6 meq/L | LDH [5]: 113 IU/L | Na [5]: 139 meq/L | PL [5]: 147.6 mg/dL | RALB [5]: 4 g/dL | TBIL [5]: 0.3 mg/dL | TC [5]: 78.8 mg/dL | TG [5]: 92.8 mg/dL | TP [5]: 5.8 g/dL
